Laboratory results from US10308662B2, “Thienopyranones as kinase and epigenetic inhibitors” (SignalRx Pharmaceuticals, Inc., priority 2014, dated 2019).

How the values were obtained:
[1] = system: B16 F10 luciferase melanoma cells; assay: B16 melanoma mouse model of metastasis; assay type: in vivo, mice; conditions: 50 mg/kg every other day, 15 days
Source text: The luciferase signal was monitored every third day by injecting luciferin, until the lungs were harvested on day 15 (n=5). […] Lungs extracted from these animals are shown below the luciferase imaged pictures supporting the repression of tumor growth in Cmpd 28-treated mice.

MYCN promoter region = assay: Brd4 chromatin precipitation with quantitative PCR of MYCN promoter in SKNBE(2) cells; assay type: cell-based, human; conditions: 24 hours exposure
Method: MYCN amplified SKNBE(2) cells were exposed to inhibitors for 24 hours then chromatin was precipitated with Brd4 (rabbit polyclonal antibody) along with rabbit IgG as a negative control (IgG). Precipitated chromatin was analyzed for the MYCN gene (2 sites within the MYCN promoter region) by quantitative PCR and enrichment is shown as the percentage of total input DNA (FIG. 4). The negative control region primers amplify within a gene desert region approximately 1 Mb away from MYCN (MYC-N NR). Error bars represent±SEM of triplicate data. P<0.05 as compared to positive control (paired t-test).

[2] = system: NB9464 murine neuroblastoma tumor; assay: NB9464 tumor growth in nude mice; assay type: in vivo; conditions: 50 mg/kg, 3 days a week for 1.5 weeks, intra-peritoneal
Source text: MYCN-overexpressing murine neuroblastoma cells (NB9464) were transplanted into nude mice, grown for 24 days and randomized into two groups.

Cyclin D1 mRNA = assay: Real-time PCR of Cyclin D1 mRNA in IMR32 cells; assay type: cell-based; conditions: IMR32, 5 μM, 24 hrs
BRD4 = BRD4 (Homo sapiens, UniProt O60885); assay: BRD4 inhibition assay (region not specified); assay type: binding
Method: The activity of a compound of the invention as an inhibitor of a bromodomain-containing protein, such as a BET protein, such as BRD2, BRD3, BRD4, and/or BRDT, or an isoform or mutant thereof, may be determined in vitro, in vivo, or in a cell line. In vitro assays include assays that determine inhibition of bromodomain-containing proteins. Alternatively, inhibitor binding may be determined by running a competition experiment where a provided compound is incubated with a bromodomain-containing protein, such as a BET protein bound to known ligands, labeled or unlabeled. For example, bromodomain inhibition can be determined in vitro using Alpha Screen Technology (http://www.reactionbiology.com/webapps/site/NewsPDFs/Bromodomain%20Assay%20Platform%20for%20Drug%20Screening%20and%20Discovery.pdf). […] Bromodomain inhibition may also be predicted by in silico modeling as described below in the Examples.
Computational modeling was performed using the commercially available FlexX (http://www.biosolveit.de/FlexX/download/flexx_brochure.pdf) software tools. […] It should be noted that the more negative the number or value of the docking score is, the stronger is the predicted binding energy at the BRD4 site that recognizes the acetyl lysine of chromatin.

p-AKT(Ser473) = assay: Western blot of pAKT in SKNBE(2) cells; assay type: cell-based, human; conditions: 24 hrs treatment, 50 ng/ml IGF stimulation
Method: (§1) Cells were stimulated with 50 ng/ml IGF for 30 min and used for lysate preparation. Proteins were quantitated by the BCA protein assay (Pierce). Equal amounts of protein were resolved by polyacrylamide gels, transferred to nitrocellulose membrane and probed by Western blot with the following primary antibodies: p-AKT(Ser473), AKT (Cell Signaling Technologies), N-MYC, CyclinD1 and β-actin (Santa Cruz Biotechnology).

[3] = system: MYCN-dependent MB patient derived xenograft (PDX) cell line; assay: Cytotoxicity / proliferation study, PDX MB; assay type: cell-based; conditions: Homo sapiens
N-MYC = assay: Western blot of N-MYC in SKNBE(2) cells; assay type: cell-based, human; conditions: 24 hrs treatment, 50 ng/ml IGF stimulation
Method: as §1

Panc02 tumor cells = assay: Orthotopic Panc02 pancreatic model of spontaneous metastasis; assay type: in vivo, mice; conditions: 50 mg/kg three times a week
Method: Panc02 (1×10^6) tumor cells were injected into the pancreas of WT mice (n=18). After 20 days, mice were randomized into two groups. One group was treated with DMSO (control) and the other group was treated with 50 mg/kg of SF2523, three times a week. Tumors were removed 35 days after tumor implantation. Values are mean±SEM (n=8 in each gp; P<0.01; pair wise two-sided Student's t test). […] Values are mean±SEM (n=7; P<0.01; pair wise two-sided Student's t test). The data are representative of three independent experiments performed.

[4] = system: SKNBE(2) neuroblastoma cell line; assay: Cytotoxicity / proliferation study, SKNBE(2); assay type: cell-based; conditions: Homo sapiens, SKNBE2; SKNBE(2) cell line
NB9464 cell line = assay: Cytotoxicity / proliferation study, NB9464; assay type: cell-based, murine; conditions: Mus musculus
N-myc (MYCN) mRNA = assay: Real-time PCR of N-myc mRNA in IMR32 cells; assay type: cell-based; conditions: IMR32, 5 μM, 24 hrs

O=c1cc(N2CCOCC2)oc2c(-c3ccc4c(c3)OCCO4)csc12 [Cmpd 28]
luciferase bioimaging of cancer cells [1]: little evidence of the presence of cancer cells
reduction in metastatic nodules ([1]; lungs): 60%
MYCN expression (Brd4-precipitated chromatin, MYCN promoter PCR) (MYCN promoter region): significantly repressed MYCN expression
tolerability (body weight) [2]: well tolerated
tumor growth compared to vehicle [2]: significantly blocked tumor growth
Cyclin D1 mRNA expression (Cyclin D1 mRNA): reducing mRNA expression
BRD4 inhibition (BRD4): showed activity against BRD4 regions 1 and 2
pAKT level by Western blot (p-AKT(Ser473)): decreased MYCN and pAKT
IC50 [3]: 3.6 µM
MYCN quantity by Western blot (N-MYC): decreased MYCN
spontaneous metastasis (Panc02 tumor cells): blocks spontaneous metastasis
IC50 [4]: 7.6 µM
IC50 (NB9464 cell line): 8.7 µM
MYCN mRNA expression (N-myc (MYCN) mRNA): inhibits MYCN expression
